Entries after “also recorded” stand apart in the source; their conditions may differ.
Legend:
[1] = cited from earlier work
[2] = test system: contralateral nasolabial folds of subjects sensitive to glycolic acid; experiment: in-vivo sting test (sting/burn propensity and forced choice); details: for Effect on stinging/burning propensity of Base Formula A containing 8% glycolic acid (in words): substance added to the formulation, pH 3.8; for Effect on sting/irritation caused by weak carboxylic acids (in words, summary): summary of Examples 1-6
From the text: (§1) Procedure for in-vivo sting test: This was a randomized, double blind study where each subject evaluated one test formulation and a control formulation or two test formulations on contralateral nasolabial folds. […] A maximum of 20 qualified subjects (minimum of 15) were utilized in each subsequent test. One paired comparison was made on each testing day, with a minimum of 3 days between sting testing throughout the study. Subjects underwent a 15 second Ivory soap wash regime immediately prior to product testing for enhancing sting response. […] Study personnel then applied one test formulation and one control or test formulation simultaneously to the appropriate left/right test site, and gently but thoroughly rubbed in. Subjects compared the stinging potential of the two formulations, over a 7.5 minute period using a self-assessment questionnaire.
(§2) Sting/Burn Propensity: The degree of stinging/burning felt on the left and right inner cheek and crease of the nose was evaluated using the following scale at the times indicated in Tables below:
(§3) 0-no stinging/burning; 1-very slight stinging/burning; 2-slight stinging/burning; 3-moderate stinging/burning; 4-moderately high stinging/burning; 5-high stinging/burning; 6-extreme stinging/burning.
(§4) Determination of Statistical Significance: At each evaluation time point after baseline, the parametric paired t-test (two-tailed) was performed, to compare the extent of attribute change from baseline between each treatment comprising a paired comparison test, with subject acting as a block in these analyses. […] The test can be implemented using the SAS software procedure MEANS with the T and PRT options specified.
(§5) Statistical significance was determined at p≦0.1.

[3] = test system: transglutaminase-K (Tgase K) in Normal Human keratinocytes; experiment: keratinocyte differentiation (transglutaminase absorbance / µg DNA); format: cell-based; details: combination with lactic acid
From the text: Keratinocytes, the major cell type in the epidermis, undergo a program of differentiation leading to formation of corneocytes which form the stratum corneum and provide a protective barrier against water loss and entry of harmful substances and pathogens. A prominent feature of keratinocyte differentiation is the formation of a highly insoluble, cross-linked envelope (CE) immediately beneath the keratinocyte plasma membrane. The production of keratinocyte CE is catalyzed by the enzyme transglutaminase-K (Tgase K) which cross-links certain precursor proteins in the cell. […] Therefore, agents that increase Tgase-K activity have the potential of providing benefits to the skin.
Method: Normal Human keratinocytes were seeded in 96-well plates at 4000 cells/well and grown in Keratinocyte Growth Medium (KGM) obtained from Clonetics Corp. Cells were treated with test compounds at various concentrations for 48 hours with an intermittent change of medium after 24 hrs. 6 replicate wells were used for each test. At the end of the incubation period, two parameters were measured on the cells—I. DNA and II. […]
I. DNA was measured using a method described by Rago et al Anal. Biochem 191:31-34,1990. […] Readings were then taken on Millipore Fluorescence Miicroplate Reader (ex/em 360/450 nm). Amount of DNA per well (α) was calculated using standards.
II. […] Absorbance was measured at 490nm (b). […]

[4] = test system: procollagen I in neonatal human dermal fibroblasts; experiment: procollagen I production by fibroblasts (slot blot); format: cell-based; details: combination with glycolic acid
From the text: Collagen is a predominant skin protein. It is synthesized by fibroblasts in the dermis. The synthesis of collagen decreases with aging or photodamage. Collagen l is first made as a precursor molecule called Pro-collagen l. Increased production of procollagen 1 is a marker of an increased collagen level in response to a test compound application.
Method: Neonatal human dermal fibroblasts were purchased from Clonetics Corp., San Diego, Calif. All materials for cell culture were purchased from Life Technologies, NY. Cells (between passages 5-10) were seeded at a density of approximately 10,000/well in the inner 48 wells of a 96-well plate in DMEM (Dulbecco's Modified Eagle's Medium), high-glucose, supplemented with 2 mM L-glutamine, 10% fetal bovine serum, and antibiotic and antimycotic solutions. Cells were then grown to confluence for 2 days. At confluence, the medium was removed and cells were washed with serum-free DMEM, and each well dosed with 200 μl of a solution of a test compound in serum-free DMEM. Each dosing was replicated in the total of six wells. […]
For the analysis of procollagen I in the solutions, they were diluted in DMEM (approximately 20 μl sample in 200 μl DMEM). […] Percent increase was calculated as a ratio of optical density of cells treated with a test compound over control ×100.

skin = details: LAREX publication Mar. 23, 1998; cited from earlier work
[5] = test system: photodamaged skin on both forearms; experiment: 12-week bilateral comparison use test, clinical assessment of photodamaged skin; format: in vivo, human; details: summary statement
Protocol: Procedure: The study was a 12-week bilateral comparison use test of two formulations. […] At Baseline (week 0), week 4, 8 and 12, visual evaluation was conducted. Product assignment was randomized and balanced for left/right usage across the subject pool. Subjects were instructed to use the appropriate product to the left/right arms at home and applied approximately 1 gram twice daily for 12 weeks. A minimum of 15 qualified subjects per paired comparison completed the study. […] 0=none […] 4-6=moderate 7-9=severe The following paired comparisons were made: […] The Wilcoxon signed rank test, Pratt-Lehmann version, was used to statistically assess the magnitude of average change from baseline attributable to treatment with subject acting as a block in this analysis. In addition, to compare the extent of change from baseline between the two treatments within a cell, the nonparametric Wilcoxon signed-rank test, Pratt-Lehmann version, was also used.

[6] = test system: contralateral nasolabial folds of subjects sensitive to glycolic acid; details: in vivo, pH 3.8
From the text: as §1, §2, §3, §4, §5

| Molecule | Effect on stinging/burning propensity of Base Formula A containing 8% glycolic acid (in words) [2] | Effect on sting/irritation caused by weak carboxylic acids (in words, summary) [2] | Effect on procollagen I levels (in words) [4] | further results |
| --- | --- | --- | --- | --- |
| CC(O)CC(=O)O (stereo not drawn) [beta-hydroxybutyric] | – | – | – | pKa [1]: 4.7 |
| C[C@]12CCC(=O)C=C1CC[C@@H]1[C@@H]2[C@@H](O)C[C@@]2(C)[C@H]1CC[C@]2(O)C(=O)CO [hydrocortisone, Hydrocortisone] | neither hydrocortisone nor arabinogalactan reduced the sting | did not reduce the sting caused by weak carboxylic acids | – | – |
| Arabinogalactan | neither hydrocortisone nor arabinogalactan reduced the sting; also recorded: slightly enhanced the sting | does not have this effect; also recorded: did not reduce the sting caused by weak carboxylic acids | did not | Effect on keratinocyte differentiation (in words) [3]: did not; Increase of exfoliation performance of a skin care lotion containing alpha hydroxy acid (skin): 80%; Irritation of the skin care lotion containing alpha hydroxy acid (in words) (skin): without increased irritation |
| Dextran | – | decrease irritation; also recorded: reduced the sting caused by weak acids | significant increase in procollagen l levels | Effect on anti-aging efficacy of hydroxy acids (in words) [5]: enhances the anti-aging efficacy of hydroxy acids; Effect on stinging/burning propensity of Base Formula B containing 8% glycolic acid (in words) [6]: reduced the stinging/burning propensity |
| Maltodextrin | – | decrease irritation | – | – |
